From ChEMBL document CHEMBL3046293, “Fungicidal Activities of -Methoxyphenylacetic Acid Derivatives” (2002)

Experiments:
Type in all cases: functional
Botrytis cinerea [1] = experiment: Fungicidal activity against Botryotinia fuckeliana assessed as cucumber gray mold disease control at 7.8 ppm treated 24 hr before inoculation by preventive manner
Pyricularia oryzae [2] = experiment: Fungicidal activity against Magnaporthe oryzae Cav. race 003 assessed as rice blast disease control at 500 ppm treated 24 hr before inoculation by preventive manner
Podosphaera fuliginea [3] = experiment: Fungicidal activity against Podosphaera fuliginea assessed as cucumber powdery mildew disease control at 7.8 ppm treated 24 hr before inoculation by preventive manner
Botrytis cinerea [4] = experiment: Fungicidal activity against Botryotinia fuckeliana assessed as cucumber gray mold disease control at 500 ppm treated 24 hr before inoculation by preventive manner
Podosphaera fuliginea [5] = experiment: Fungicidal activity against Podosphaera fuliginea assessed as cucumber powdery mildew disease control at 31.3 ppm treated 24 hr before inoculation by preventive manner
Pyricularia oryzae [6] = experiment: Fungicidal activity against Magnaporthe oryzae Cav. race 003 assessed as rice blast disease control at 125 ppm treated 24 hr before inoculation by preventive manner
Podosphaera fuliginea [7] = experiment: Fungicidal activity against Podosphaera fuliginea assessed as cucumber powdery mildew disease control at 125 ppm treated 24 hr before inoculation by preventive manner
Podosphaera fuliginea [8] = experiment: Fungicidal activity against Podosphaera fuliginea assessed as cucumber powdery mildew disease control at 500 ppm treated 24 hr before inoculation by preventive manner

## CNC(=O)C(OC)c1cccc(COc2ccccc2C)c1 (stereo not drawn)
Botrytis cinerea [1]
  Activity: 50%
Pyricularia oryzae [2]
  Activity: 90%
Podosphaera fuliginea [3]
  Activity: 90%

## CNC(=O)C(OC)c1cccc(COc2cccc(Cl)c2)c1 (stereo not drawn)
Pyricularia oryzae [2]
  Activity: <90%
Botrytis cinerea [4]
  Activity: 50%
Podosphaera fuliginea [5]
  Activity: 90%

## COC(=O)C(OC)c1cccc(COc2ccccc2Cl)c1 (stereo not drawn)
Pyricularia oryzae [6]
  Activity: 90%
Botrytis cinerea [4]
  Activity: 50%
Podosphaera fuliginea [7]
  Activity: 90%

## CNC(=O)C(OC(C)=O)c1cccc(COc2cc(C)ccc2C)c1 (stereo not drawn)
Pyricularia oryzae [2]
  Activity: <90%
Podosphaera fuliginea [8]
  Activity: <90%
Botrytis cinerea [4]
  Activity: <50%

## CNC(=O)C(OC)c1cccc(Oc2ccc(Cl)cc2)c1 (stereo not drawn)
Pyricularia oryzae [2]
  Activity: <90%
Podosphaera fuliginea [8]
  Activity: <90%
Botrytis cinerea [4]
  Activity: <50%

## CNC(=O)C(OC)c1cccc(Oc2ccc(C)c(C)c2)c1 (stereo not drawn)
Pyricularia oryzae [2]
  Activity: <90%
Botrytis cinerea [4]
  Activity: <50%
Podosphaera fuliginea [7]
  Activity: 90%

## COC(=O)C(OC)c1cccc(COc2ccc(Cl)cc2Cl)c1 (stereo not drawn)
Pyricularia oryzae [2]
  Activity: <90%
Podosphaera fuliginea [3]
  Activity: 90%
Botrytis cinerea [4]
  Activity: <50%

## CNC(=O)C(OC)c1cccc(COc2ccc(C)cc2Cl)c1 (stereo not drawn)
Pyricularia oryzae [6]
  Activity: 90%
Podosphaera fuliginea [3]
  Activity: 90%
Botrytis cinerea [4]
  Activity: 50%

## COC(C(=O)O)c1cccc(COc2cc(C)ccc2C)c1 (stereo not drawn)
Pyricularia oryzae [2]
  Activity: 90%
Podosphaera fuliginea [3]
  Activity: 90%
Botrytis cinerea [4]
  Activity: <50%

## CCc1ccccc1OCc1cccc(C(OC)C(=O)NC)c1 (stereo not drawn)
Pyricularia oryzae [6]
  Activity: 90%
Podosphaera fuliginea [3]
  Activity: 90%
Botrytis cinerea [4]
  Activity: 50%

## CNC(=O)C(OC)c1cccc(COc2ccc(C)cc2)c1 (stereo not drawn)
Pyricularia oryzae [2]
  Activity: 90%
Botrytis cinerea [4]
  Activity: <50%
Podosphaera fuliginea [5]
  Activity: 90%

## CNC(=O)C(OC)c1cccc(COc2c(C)cccc2C)c1 (stereo not drawn)
Pyricularia oryzae [2]
  Activity: <90%
Podosphaera fuliginea [8]
  Activity: <90%
Botrytis cinerea [4]
  Activity: <50%

## CNC(=O)C(OC)c1cccc(Oc2cc(C)cc(C)c2)c1 (stereo not drawn)
Pyricularia oryzae [2]
  Activity: <90%
Botrytis cinerea [4]
  Activity: <50%
Podosphaera fuliginea [5]
  Activity: 90%

## COC(=O)C(OC)c1cccc(COc2cc(Cl)cc(Cl)c2)c1 (stereo not drawn)
Pyricularia oryzae [2]
  Activity: <90%
Botrytis cinerea [4]
  Activity: <50%
Podosphaera fuliginea [7]
  Activity: 90%

## COC(=O)C(OC)c1cccc(Oc2cc(C)cc(C)c2)c1 (stereo not drawn)
Pyricularia oryzae [2]
  Activity: <90%
Podosphaera fuliginea [8]
  Activity: 90%
Botrytis cinerea [4]
  Activity: <50%

## COC(C(=O)SC)c1cccc(COc2cc(C)ccc2C)c1 (stereo not drawn)
Pyricularia oryzae [2]
  Activity: <90%
Podosphaera fuliginea [8]
  Activity: <90%
Botrytis cinerea [4]
  Activity: <50%

## COC(=O)C(OC)c1cccc(COc2ccccc2)c1 (stereo not drawn)
Pyricularia oryzae [2]
  Activity: <90%
Botrytis cinerea [4]
  Activity: <50%
Podosphaera fuliginea [7]
  Activity: 90%

## CCCCOC(C(=O)NC)c1cccc(COc2cc(C)ccc2C)c1 (stereo not drawn)
Pyricularia oryzae [2]
  Activity: <90%
Botrytis cinerea [4]
  Activity: <50%
Podosphaera fuliginea [5]
  Activity: 90%

## COC(=O)C(OC)c1cccc(Oc2ccc(C)c(C)c2)c1 (stereo not drawn)
Pyricularia oryzae [2]
  Activity: <90%
Podosphaera fuliginea [8]
  Activity: 90%
Botrytis cinerea [4]
  Activity: <50%

## COC(C(N)=O)c1cccc(COc2cc(C)ccc2C)c1 (stereo not drawn)
Pyricularia oryzae [2]
  Activity: 90%
Botrytis cinerea [4]
  Activity: <50%
Podosphaera fuliginea [5]
  Activity: 90%

## CNC(=O)C(OC)c1cccc(Oc2ccccc2)c1 (stereo not drawn)
Pyricularia oryzae [2]
  Activity: <90%
Podosphaera fuliginea [8]
  Activity: <90%
Botrytis cinerea [4]
  Activity: <50%

## CNC(=O)C(OCOC)c1cccc(COc2cc(C)ccc2C)c1 (stereo not drawn)
Pyricularia oryzae [2]
  Activity: <90%
Podosphaera fuliginea [8]
  Activity: <90%
Botrytis cinerea [4]
  Activity: <50%

## CNC(=O)C(OC)c1cccc(COc2ccccc2F)c1 (stereo not drawn)
Pyricularia oryzae [2]
  Activity: 90%
Botrytis cinerea [4]
  Activity: 50%
Podosphaera fuliginea [5]
  Activity: 90%

## CNC(=O)C(OC)c1cccc(COc2ccc(Cl)cc2Cl)c1 (stereo not drawn)
Pyricularia oryzae [2]
  Activity: <90%
Podosphaera fuliginea [3]
  Activity: 90%
Botrytis cinerea [4]
  Activity: <50%

## CNC(=O)C(OC)c1cccc(OCc2ccc(Cl)cc2)c1 (stereo not drawn)
Pyricularia oryzae [2]
  Activity: <90%
Podosphaera fuliginea [8]
  Activity: <90%
Botrytis cinerea [4]
  Activity: <50%

## CNC(=O)C(OC)c1cccc(COc2ccc(C)c(C)c2)c1 (stereo not drawn)
Pyricularia oryzae [6]
  Activity: 90%
Botrytis cinerea [4]
  Activity: 50%
Podosphaera fuliginea [5]
  Activity: 90%

## COC(=O)C(OC)c1cccc(COc2ccc(C)cc2)c1 (stereo not drawn)
Pyricularia oryzae [2]
  Activity: <90%
Botrytis cinerea [4]
  Activity: <50%
Podosphaera fuliginea [7]
  Activity: 90%

## CNC(=O)C(OC)c1cccc(COc2ccc(C)cc2OC)c1 (stereo not drawn)
Pyricularia oryzae [2]
  Activity: <90%
Podosphaera fuliginea [8]
  Activity: <90%
Botrytis cinerea [4]
  Activity: 50%

## COC(=O)C(OC)c1cccc(COc2ccc(Cl)cc2)c1 (stereo not drawn)
Pyricularia oryzae [2]
  Activity: <90%
Botrytis cinerea [4]
  Activity: <50%
Podosphaera fuliginea [7]
  Activity: 90%

## CNC(=O)C(OC)c1cccc(COc2ccc(Cl)cc2C)c1 (stereo not drawn)
Botrytis cinerea [1]
  Activity: 50%
Pyricularia oryzae [6]
  Activity: 90%
Podosphaera fuliginea [3]
  Activity: 90%

## CNC(=O)C(OC)c1cccc(COc2ccccc2Cl)c1 (stereo not drawn)
Pyricularia oryzae [2]
  Activity: 90%
Podosphaera fuliginea [3]
  Activity: 90%
Botrytis cinerea [4]
  Activity: <50%

## CCOC(C(=O)NC)c1cccc(COc2cc(C)ccc2C)c1 (stereo not drawn)
Pyricularia oryzae [2]
  Activity: <90%
Podosphaera fuliginea [3]
  Activity: 90%
Botrytis cinerea [4]
  Activity: <50%

## CNC(=O)C(OC)c1cccc(COc2ccccc2)c1 (stereo not drawn)
Pyricularia oryzae [2]
  Activity: <90%
Botrytis cinerea [4]
  Activity: 50%
Podosphaera fuliginea [7]
  Activity: 90%

## COC(=O)C(OC)c1cccc(COc2cccc(C)c2)c1 (stereo not drawn)
Pyricularia oryzae [2]
  Activity: <90%
Botrytis cinerea [4]
  Activity: <50%
Podosphaera fuliginea [7]
  Activity: 90%

## CNC(=O)C(OC)c1cccc(COc2cccc(C)c2C)c1 (stereo not drawn)
Botrytis cinerea [1]
  Activity: 50%
Pyricularia oryzae [6]
  Activity: 90%
Podosphaera fuliginea [3]
  Activity: 90%

## CCc1ccccc1OCc1cccc(C(OC)C(=O)OC)c1 (stereo not drawn)
Pyricularia oryzae [2]
  Activity: <90%
Podosphaera fuliginea [8]
  Activity: <90%
Botrytis cinerea [4]
  Activity: <50%

## CNC(=O)C(OC)c1cccc(Oc2ccc(C)cc2)c1 (stereo not drawn)
Pyricularia oryzae [2]
  Activity: <90%
Podosphaera fuliginea [8]
  Activity: <90%
Botrytis cinerea [4]
  Activity: <50%

## CNC(=O)C(OC)c1cccc(COc2ccc(Cl)cc2)c1 (stereo not drawn)
Pyricularia oryzae [2]
  Activity: <90%
Botrytis cinerea [4]
  Activity: <50%
Podosphaera fuliginea [5]
  Activity: 90%

## CCCCNC(=O)C(OC)c1cccc(COc2cc(C)ccc2C)c1 (stereo not drawn)
Pyricularia oryzae [2]
  Activity: <90%
Podosphaera fuliginea [8]
  Activity: <90%
Botrytis cinerea [4]
  Activity: <50%

## CNC(=O)C(OC)c1cccc(Oc2cccc(C)c2)c1 (stereo not drawn)
Pyricularia oryzae [2]
  Activity: <90%
Podosphaera fuliginea [8]
  Activity: <90%
Botrytis cinerea [4]
  Activity: <50%

## CNC(=O)C(OC)c1cccc(COC(=O)c2ccc(Cl)cc2)c1 (stereo not drawn)
Pyricularia oryzae [2]
  Activity: <90%
Podosphaera fuliginea [8]
  Activity: <90%
Botrytis cinerea [4]
  Activity: <50%

## CNC(=O)C(OC)c1cccc(CSc2cc(C)ccc2C)c1 (stereo not drawn)
Pyricularia oryzae [2]
  Activity: <90%
Podosphaera fuliginea [8]
  Activity: 90%
Botrytis cinerea [4]
  Activity: <50%

## COC(=O)C(OC)c1cccc(COc2ccc(C)cc2C)c1 (stereo not drawn)
Pyricularia oryzae [2]
  Activity: 90%
Podosphaera fuliginea [8]
  Activity: <90%
Botrytis cinerea [4]
  Activity: 50%

## COC(=O)C(OC)c1cccc(COc2cccc(C)c2C)c1 (stereo not drawn)
Pyricularia oryzae [2]
  Activity: 90%
Podosphaera fuliginea [8]
  Activity: <90%
Botrytis cinerea [4]
  Activity: <50%

## COC(=O)C(OC)c1cccc(COc2ccccc2C)c1 (stereo not drawn)
Pyricularia oryzae [6]
  Activity: 90%
Botrytis cinerea [4]
  Activity: 50%
Podosphaera fuliginea [7]
  Activity: 90%

## CNC(=O)C(OC)c1cccc(COc2cc(Cl)cc(Cl)c2)c1 (stereo not drawn)
Pyricularia oryzae [2]
  Activity: <90%
Botrytis cinerea [4]
  Activity: <50%
Podosphaera fuliginea [5]
  Activity: 90%

## CNC(=O)C(OC)c1cccc(COc2cccc(C)c2)c1 (stereo not drawn)
Pyricularia oryzae [2]
  Activity: 90%
Botrytis cinerea [4]
  Activity: <50%
Podosphaera fuliginea [7]
  Activity: 90%

## COC(C(=O)N(C)C)c1cccc(COc2cc(C)ccc2C)c1 (stereo not drawn)
Pyricularia oryzae [2]
  Activity: 90%
Botrytis cinerea [4]
  Activity: <50%
Podosphaera fuliginea [7]
  Activity: 90%

## CNC(=O)C(OC)c1cccc(COc2ccccc2OC)c1 (stereo not drawn)
Pyricularia oryzae [2]
  Activity: <90%
Podosphaera fuliginea [8]
  Activity: <90%
Botrytis cinerea [4]
  Activity: <50%

## COC(=O)C(OC)c1cccc(COc2cc(C)ccc2C)c1 (stereo not drawn)
Pyricularia oryzae [6]
  Activity: 90%
Podosphaera fuliginea [8]
  Activity: <90%
Botrytis cinerea [4]
  Activity: 50%

## CNC(=O)C(OC)c1cccc(COc2cc(C)ccc2Cl)c1 (stereo not drawn)
Botrytis cinerea [1]
  Activity: 50%
Pyricularia oryzae [6]
  Activity: 90%
Podosphaera fuliginea [3]
  Activity: 90%
